Measurements from patent US12319655B2, “RAF kinase inhibitors and methods of use thereof” (Deciphera Pharmaceuticals, LLC, priority 2021, dated 2025).

Key:
[1] = biological target: A-Raf kinase (SEQ. ID No: 1) (Homo sapiens (Human), UniProt P10398, Y301D/Y302D); assay: Biochemical Assay for A-Raf (2); conditions: Table J, biochemical assay (2); read-out: ARAF (2)
Method: Biochemical Assay for A-Raf (2)
(§1) Activity of A-Raf kinase (SEQ. ID No: 1) was determined spectroscopically using a coupled pyruvate kinase/lactate dehydrogenase assay that continuously monitors the ATP hydrolysis-dependent oxidation of NADH (e.g., Schindler et al., Science, 2000, 289, 1938-1942). Assays were conducted in 384-well plates (25 μL final volume) using 20 nM A-Raf (Eurofins), 1.5 units pyruvate kinase, 2.1 units lactate dehydrogenase, 1 mM phosphoenol pyruvate, 0.7 mM NADH, 100 nM MEK (SignalChem), and 1 mM ATP in assay buffer (100 mM Tris, pH 7.5, 15 mM MgCl2, 0.5 mM DTT, 0.1% octyl-glucoside, 0.002% (w/v) BSA, and 0.002% Triton X-100). Inhibition of A-Raf was measured by adding serial diluted test compound (final assay concentration of 1% DMSO). A decrease in absorption at 340 nm was monitored hourly for 4 h at 30° C. on a multi-mode microplate reader (BioTek). The reaction rate was calculated using the 3 to 4 h time frame. The reaction rate at each concentration of compound was converted to percent inhibition using controls (i.e., reaction with no test compound and reaction with a known inhibitor) and IC50 values were calculated by fitting a four-parameter sigmoidal curve to the data using Prism (GraphPad software).

[2] = biological target: B-Raf (V600E) (SEQ. ID NO: 4) kinase (Homo sapiens (Human), UniProt P15056, V600E); assay: Biochemical Assay for B-Raf (V600E) (2); conditions: Table J, BRAF V600E, biochemical assay (2); read-out: BRAF VE (2)
Method: Biochemical Assay for B-Raf (V600E) (2)
as §1, with “of B-Raf (V600E)” for “of A-Raf kinase”, “ID NO: 4) kinase” for “ID No: 1)”, “using 0.5” for “using 20”, “nM B-Raf (deCode),” for “nM A-Raf (Eurofins),”, “of B-Raf (V600E)” for “of A-Raf”

[3] = biological target: C-Raf kinase (SEQ. ID NO: 3) (Homo sapiens (Human), UniProt P04049, Y340D/Y341D); assay: Biochemical Assay for C-Raf (2); conditions: Table J, biochemical assay (2); read-out: CRAF (2)
Method: Biochemical Assay for C-Raf (2)
Activity of C-Raf kinase (SEQ. ID NO: 3) was determined spectroscopically using a coupled pyruvate kinase/lactate dehydrogenase assay that continuously monitors the ATP hydrolysis-dependent oxidation of NADH (e.g., Schindler et al., Science, 2000, 289, 1938-1942). Assays were conducted in 384-well plates (25 μL final volume) using 3.84 nM C-Raf (Eurofins), 1.5 units pyruvate kinase, 2.1 units lactate dehydrogenase, 1 mM phosphoenol pyruvate, 0.7 mM NADH, 50 nM MEK (SignalChem), and 1 mM ATP in assay buffer (100 mM Tris, pH 7.5, 15 mM MgCl2, 0.5 mM DTT, 0.1% octyl-glucoside, 0.002% (w/v) BSA, and 0.002% Triton X-100). Inhibition of C-Raf was measured by adding serial diluted test compound (final assay concentration of 1% DMSO). A decrease in absorption at 340 nm was monitored hourly for 4 h at 30° C. on a multi-mode microplate reader (BioTek). The reaction rate was calculated using the 2 to 3 h time frame. The reaction rate at each concentration of compound was converted to percent inhibition using controls (i.e., reaction with no test compound and reaction with a known inhibitor) and IC50 values were calculated by fitting a four-parameter sigmoidal curve to the data using Prism (GraphPad software).

[4] = tested on: WM3928 cells; assay: WM3928 Cell Proliferation Assay (2); format: cell-based
Method: WM3928 Cell Proliferation Assay (2)
WM3928 cells (#WM3928-01-0001) are obtained from Rockland Immunochemicals Inc (Gilbertsville, PA). Briefly, cells were grown in MCDB 153 medium (Sigma, #M7403, St. Louis, MO) supplemented with 20% Leibovitz's L-15 (ThermoFisher #11415-064, Waltham, MA), 2% heat inactivated fetal bovine serum (ThermoFisher, #A3840001, Waltham, MA), 5 μg/mL Insulin (Bovine Pancreas) (Sigma, #10516, St. Louis, MO), 1.68 mM Calcium Chloride (Sigma, #C-34006, St. Louis, MO) and 1% Penicillin/Streptomycin/L-Glutamine (ThermoFisher #10378016, Waltham, MA) at 37° C., 5% CO2, and 95% humidity. Cells are expanded until reaching 70-95% confluency at which point they are sub-cultured or harvested for assay use. Using the Beckman Coulter Echo 650, a serial dilution of test compound is dispensed into a 384-well black clear bottom plate in triplicate. Seven hundred fifty cells are added per well in 50 μL complete growth medium in the 384-well plate. Plates are incubated for 67-72 hours at 37° C., 5% CO2, and 95% humidity. At the end of the incubation, 10 μL of a 440 μM solution of resazurin (Sigma, #199303, St. Louis, MO) in PBS is added to each well of the plate and plates are incubated for an additional 3-6 hours at 37° C., 5% CO2, and 95% humidity. Plates are read on a Synergy2 or equivalent reader (Biotek, Winooski VT) using an excitation of 540 nm and an emission of 600 nm. Data is analyzed using Prism software (GraphPad, San Diego, CA) to calculate IC50 values.

Sequence of A-Raf kinase (SEQ. ID No: 1) (P10398 other isoform, or with tags, fused parts or gaps Y301D (already in the parent)/Y302D (already in the parent)): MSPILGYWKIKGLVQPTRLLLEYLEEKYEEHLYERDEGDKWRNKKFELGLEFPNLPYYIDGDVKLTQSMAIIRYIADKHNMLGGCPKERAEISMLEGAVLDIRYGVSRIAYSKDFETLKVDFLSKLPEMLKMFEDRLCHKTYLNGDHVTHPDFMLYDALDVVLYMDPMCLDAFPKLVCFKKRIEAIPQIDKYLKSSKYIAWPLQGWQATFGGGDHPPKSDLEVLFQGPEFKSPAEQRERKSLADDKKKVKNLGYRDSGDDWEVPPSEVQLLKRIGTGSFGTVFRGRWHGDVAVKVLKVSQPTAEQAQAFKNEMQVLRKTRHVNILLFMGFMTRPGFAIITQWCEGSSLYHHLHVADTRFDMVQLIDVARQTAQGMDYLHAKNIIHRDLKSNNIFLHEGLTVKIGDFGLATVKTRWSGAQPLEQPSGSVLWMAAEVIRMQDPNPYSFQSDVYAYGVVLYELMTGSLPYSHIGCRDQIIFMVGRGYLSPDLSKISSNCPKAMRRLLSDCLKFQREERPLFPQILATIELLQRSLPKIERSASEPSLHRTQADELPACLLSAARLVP
Sequence of B-Raf (V600E) (SEQ. ID NO: 4) kinase (P15056 416-766 V600E): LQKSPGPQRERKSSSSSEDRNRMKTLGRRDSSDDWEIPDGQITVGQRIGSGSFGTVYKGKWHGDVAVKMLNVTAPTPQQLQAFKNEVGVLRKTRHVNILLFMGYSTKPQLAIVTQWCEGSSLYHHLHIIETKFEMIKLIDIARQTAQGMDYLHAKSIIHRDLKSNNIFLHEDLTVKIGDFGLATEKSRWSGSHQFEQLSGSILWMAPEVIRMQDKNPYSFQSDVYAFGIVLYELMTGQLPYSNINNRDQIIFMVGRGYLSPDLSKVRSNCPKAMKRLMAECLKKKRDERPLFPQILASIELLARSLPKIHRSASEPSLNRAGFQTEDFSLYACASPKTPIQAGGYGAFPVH
Sequence of C-Raf kinase (SEQ. ID NO: 3) (P04049 307-648 Y340D/Y341D): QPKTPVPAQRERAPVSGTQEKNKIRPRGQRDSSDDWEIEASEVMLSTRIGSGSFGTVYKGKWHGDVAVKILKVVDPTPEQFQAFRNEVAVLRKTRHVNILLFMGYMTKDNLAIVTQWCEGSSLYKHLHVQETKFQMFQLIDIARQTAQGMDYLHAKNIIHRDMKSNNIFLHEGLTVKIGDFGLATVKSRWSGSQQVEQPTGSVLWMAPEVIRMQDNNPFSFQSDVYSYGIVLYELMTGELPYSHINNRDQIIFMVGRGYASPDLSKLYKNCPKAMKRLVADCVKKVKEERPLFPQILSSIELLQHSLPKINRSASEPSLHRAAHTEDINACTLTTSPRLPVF

Row | IC50 [1] [nM] | IC50 [2] [nM] | IC50 [3] [nM] | SMILES | IC50 [4] [nM]
1 | 1000 to 10000 | ≤ 100 | ≤ 100 | CNC(=O)c1cc(-c2cncc(-c3cc(NC(=O)c4ccnc(C(C)(F)F)c4)ccc3C)c2)ncn1 [Example 439] | 100 to 500
2 | 1000 to 10000 | ≤ 100 | ≤ 100 | CNC(=O)c1cc(-c2cncc(-c3cc(NC(=O)c4ccnc(C(C)(F)F)c4)ccc3C)c2)ccn1 [Example 440] | ≤ 100
3 | 500 to 1000 | ≤ 100 | ≤ 100 | CNC(=O)c1cc(-c2cc(-c3cc(NC(=O)c4ccnc(C(C)(F)F)c4)ccc3C)ccn2)ccn1 [Example 441] | ≤ 100
4 | 1000 to 10000 | ≤ 100 | ≤ 100 | CNC(=O)c1cc(-c2cncc(-c3cc(NC(=O)c4ccnc(C(C)(C)C#N)c4)ccc3C)c2)ccn1 [Example 442] | ≤ 100
5 | 500 to 1000 | ≤ 100 | ≤ 100 | CNC(=O)c1cc(-c2cc(-c3cc(NC(=O)c4ccnc(C(C)C)c4)ccc3C)ccn2)ccn1 [Example 443] | ≤ 100
6 | 1000 to 10000 | ≤ 100 | ≤ 100 | CNC(=O)c1cc(-c2cc(-c3cc(NC(=O)c4ccnc(C(C)(C)F)c4)cnc3C)ccn2)ccn1 [Example 444] | 100 to 500
7 | 500 to 1000 | ≤ 100 | ≤ 100 | CNC(=O)c1cc(-c2cncc(-c3cc(NC(=O)c4ccnc(C(C)C)c4)ccc3C)c2)ccn1 [Example 445] | ≤ 100
8 | 1000 to 10000 | ≤ 100 | ≤ 100 | CNC(=O)c1cc(-c2cncc(-c3cc(NC(=O)c4ccnc(C(C)C)c4)ccc3C)c2)ncn1 [Example 446] | ≤ 100
9 | 1000 to 10000 | 100 to 500 | ≤ 100 | Cc1ccc(NC(=O)c2ccnc(C(C)(C)F)c2)cc1-c1ccnc(-c2ccnc(C#N)c2)c1 [Example 447] | 500 to 1000
10 | 1000 to 10000 | ≤ 100 | ≤ 100 | Cc1ccc(NC(=O)c2ccnc(C(C)(C)F)c2)cc1-c1ccnc(-c2ccnc(C(=O)NCCO)c2)c1 [Example 448] | ≤ 100
11 | 1000 to 10000 | ≤ 100 | ≤ 100 | CNC(=O)c1cc(-c2cc(-c3cc(NC(=O)c4ccnc(C(C)(C)F)c4)ccc3C)cc(OCCO)n2)ccn1 [Example 449] | ≤ 100
12 | 1000 to 10000 | ≤ 100 | 100 to 500 | Cc1ccc(NC(=O)c2ccnc(C(C)(C)F)c2)cc1-c1ccnc(-c2ccnc(C(=O)NC3CN(C)C3)c2)c1 [Example 450] | 100 to 500
13 | 1000 to 10000 | ≤ 100 | ≤ 100 | Cc1ccc(NC(=O)c2ccnc(C(C)(C)F)c2)cc1-c1ccnc(-c2ccnc(C(=O)NCC#N)c2)c1 [Example 451] | ≤ 100
14 | 1000 to 10000 | ≤ 100 | ≤ 100 | CNC(=N)c1cc(-c2cc(-c3cc(NC(=O)c4ccnc(C(C)(C)F)c4)ccc3C)ccn2)ccn1 [Example 452] | 100 to 500
15 | 1000 to 10000 | ≤ 100 | ≤ 100 | Cc1ccc(NC(=O)c2ccnc(C(C)(C)F)c2)cc1-c1ccnc(-c2ccnc(C(=O)NCCN(C)C)c2)c1 [Example 453] | 100 to 500
16 | 500 to 1000 | ≤ 100 | ≤ 100 | Cc1ncc(NC(=O)c2ccnc(C(C)(C)F)c2)cc1-c1ccnc(-c2ccnc(NC(=O)C3CC3)c2)c1 [Example 454] | ≤ 100
17 | 100 to 500 | ≤ 100 | ≤ 100 | Cc1ccc(NC(=O)c2ccnc(C(C)(C)F)c2)cc1-c1ccnc(-c2ccnc(NC(=O)C3CC3)c2)c1 [Example 455] | ≤ 100
18 | 100 to 500 | ≤ 100 | ≤ 100 | Cc1ccc(NC(=O)c2ccnc(C(C)(C)C#N)c2)cc1-c1ccnc(-c2ccnc(NC(=O)C3CC3)c2)c1 [Example 456] | ≤ 100
19 | 100 to 500 | ≤ 100 | ≤ 100 | Cc1ccc(NC(=O)c2ccnc(C3(C#N)CC3)c2)cc1-c1ccnc(-c2ccnc(NC(=O)C3CC3)c2)c1 [Example 457] | ≤ 100
20 | 100 to 500 | ≤ 100 | ≤ 100 | Cc1ccc(NC(=O)c2ccnc(C3CC3)c2)cc1-c1ccnc(-c2ccnc(NC(=O)C3CC3)c2)c1 [Example 458] | ≤ 100
21 | 100 to 500 | ≤ 100 | ≤ 100 | Cc1ccc(NC(=O)c2ccnc(C(C)(F)F)c2)cc1-c1ccnc(-c2ccnc(NC(=O)C3CC3)c2)c1 [Example 459] | ≤ 100
22 | 500 to 1000 | ≤ 100 | ≤ 100 | CNC(=O)c1cc(-c2cc(-c3cc(NC(=O)c4ccnc(C5CC5)c4)ccc3C)ccn2)ccn1 [Example 460] | ≤ 100
23 | 100 to 500 | ≤ 100 | ≤ 100 | Cc1ncc(NC(=O)c2ccnc(C3(C#N)CC3)c2)cc1-c1ccnc(-c2ccnc(NC(=O)C3CC3)c2)c1 [Example 461] | ≤ 100
24 | 1000 to 10000 | 100 to 500 | ≤ 100 | CNC(=O)c1cc(-c2cc(-c3cc(NC(=O)c4ccnc(C5CC5)c4)cnc3C)ccn2)ccn1 [Example 462] | 500 to 1000
25 | 1000 to 10000 | ≤ 100 | ≤ 100 | CNC(=O)c1cc(-c2cc(-c3cc(NC(=O)c4ccnc(C(C)(F)F)c4)cnc3C)ccn2)ccn1 [Example 463] | 100 to 500
26 | 100 to 500 | ≤ 100 | ≤ 100 | CNC(=O)c1cc(-c2cc(-c3cc(NC(=O)c4ccnc(C5(C#N)CC5)c4)cnc3C)ccn2)ccn1 [Example 464] | 100 to 500
